Key:
[1] = target: Sodium-dependent serotonin transporter (Homo sapiens, UniProt P31645); assay type: cell-based, JAR
Description: Inhibition of human SERT expressed in JAR cells

[2] = target: Sodium-dependent dopamine transporter (Homo sapiens) (UniProt Q01959); test: Displacement of [3H]WIN-35428 from human DAT expressed in CHO cells; assay type: cell-based; conditions: concentration not given here
[3] = target: Sodium-dependent noradrenaline transporter (Homo sapiens, UniProt P23975)
Description: Inhibition of human NET expressed in MDCK-Net6 cells

Homo sapiens = organism: Homo sapiens; test: Selectivity ratio, IC50 for human SERT to IC50 for human NET
[4] = Plasma concentration in rat at 10 mg/kg, po after 8 hrs; assay type: ADME, organism-based; design: dose 10 mg/kg, route oral
[5] = Oral bioavailability in rat at 10 mg/kg; assay type: ADME, organism-based; conditions: in vivo
Rattus norvegicus [6] = test: Effect on temperature homeostasis in ovariectomized-induced thermoregulatory dysfunction telemetric Sprague-Dawley rat model assessed as duration of tail skin temperature reduction at 30 mg/kg, po; assay type: functional
[7] = Cmax in rat at 10 mg/kg, po after 8 hrs; assay type: ADME, organism-based; design: dose 10 mg/kg, route oral; conditions: in vivo
Rattus norvegicus [8] = test: Effect on temperature homeostasis in ovariectomized-induced thermoregulatory dysfunction in telemetric Sprague-Dawley rat model assessed as duration of onset activity in tail skin temperature reduction at 30 mg/kg, po; assay type: functional
[9] = Ratio of AUC in brain to AUC in plasma in rat at 10 mg/kg, po and 2 mg/kg, iv; assay type: ADME, organism-based; conditions: read-out: Ratio AUC
Rattus norvegicus [10] = test: Effect on temperature homeostasis in ovariectomized-induced thermoregulatory dysfunction in telemetric Sprague-Dawley rat model assessed as duration of onset activity in tail skin temperature reduction at 10 mg/kg, po; assay type: functional
Rattus norvegicus [11] = test: Effect on temperature homeostasis in ovariectomized-induced thermoregulatory dysfunction telemetric Sprague-Dawley rat model assessed as maximum reduction in tail skin temperature at 30 mg/kg, po; assay type: functional
Rattus norvegicus [12] = test: Effect on temperature homeostasis in ovariectomized-induced thermoregulatory dysfunction telemetric Sprague-Dawley rat model assessed as mean reduction in tail skin temperature at 30 mg/kg, po; assay type: functional
Rattus norvegicus [13] = test: Effect on temperature homeostasis in ovariectomized-induced thermoregulatory dysfunction in telemetric Sprague-Dawley rat model assessed as duration of tail skin temperature reduction at 10 mg/kg, po; assay type: functional
Rattus norvegicus [14] = test: Effect on temperature homeostasis in ovariectomized-induced thermoregulatory dysfunction telemetric Sprague-Dawley rat model assessed as maximum reduction in tail skin temperature at 10 mg/kg, po; assay type: functional
Rattus norvegicus [15] = test: Effect on temperature homeostasis in ovariectomized-induced thermoregulatory dysfunction telemetric Sprague-Dawley rat model assessed as mean reduction in tail skin temperature at 10 mg/kg, po; assay type: functional

Sodium-dependent serotonin transporter, sequence (P31645 whole entry): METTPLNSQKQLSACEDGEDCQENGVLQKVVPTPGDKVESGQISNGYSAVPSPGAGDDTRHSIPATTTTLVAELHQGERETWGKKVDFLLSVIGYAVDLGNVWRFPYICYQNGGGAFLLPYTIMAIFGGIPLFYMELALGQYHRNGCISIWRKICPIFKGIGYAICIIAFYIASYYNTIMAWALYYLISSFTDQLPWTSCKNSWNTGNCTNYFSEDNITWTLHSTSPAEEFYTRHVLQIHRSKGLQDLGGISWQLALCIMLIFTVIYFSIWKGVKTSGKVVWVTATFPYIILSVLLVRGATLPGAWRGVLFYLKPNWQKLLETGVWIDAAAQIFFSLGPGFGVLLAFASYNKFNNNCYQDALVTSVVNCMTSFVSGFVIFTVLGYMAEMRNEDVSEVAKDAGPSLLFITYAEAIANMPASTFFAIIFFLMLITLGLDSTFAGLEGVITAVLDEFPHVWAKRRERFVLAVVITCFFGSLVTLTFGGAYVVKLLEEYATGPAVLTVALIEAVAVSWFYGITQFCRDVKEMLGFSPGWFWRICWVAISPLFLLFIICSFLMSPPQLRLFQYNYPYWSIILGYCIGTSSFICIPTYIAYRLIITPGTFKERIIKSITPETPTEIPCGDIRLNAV
Sodium-dependent noradrenaline transporter, sequence (P23975 whole entry): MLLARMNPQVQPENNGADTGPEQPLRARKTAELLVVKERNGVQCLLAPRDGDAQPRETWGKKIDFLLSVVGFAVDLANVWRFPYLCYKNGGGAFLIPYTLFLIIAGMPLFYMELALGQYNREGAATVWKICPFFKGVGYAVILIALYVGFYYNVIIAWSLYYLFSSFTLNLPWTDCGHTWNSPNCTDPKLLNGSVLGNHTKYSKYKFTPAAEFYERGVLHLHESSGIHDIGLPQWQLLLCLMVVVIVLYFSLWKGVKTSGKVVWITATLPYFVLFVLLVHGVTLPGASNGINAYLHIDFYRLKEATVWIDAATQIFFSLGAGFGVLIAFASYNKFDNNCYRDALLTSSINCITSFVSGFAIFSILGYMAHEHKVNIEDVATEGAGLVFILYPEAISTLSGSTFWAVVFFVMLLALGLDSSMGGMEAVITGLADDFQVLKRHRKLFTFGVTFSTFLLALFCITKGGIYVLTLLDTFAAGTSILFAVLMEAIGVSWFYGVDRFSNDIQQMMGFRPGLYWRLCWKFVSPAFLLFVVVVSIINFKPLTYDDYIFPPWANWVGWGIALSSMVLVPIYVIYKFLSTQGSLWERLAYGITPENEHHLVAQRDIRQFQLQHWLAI
Sodium-dependent dopamine transporter (Homo sapiens), sequence (Q01959 whole entry): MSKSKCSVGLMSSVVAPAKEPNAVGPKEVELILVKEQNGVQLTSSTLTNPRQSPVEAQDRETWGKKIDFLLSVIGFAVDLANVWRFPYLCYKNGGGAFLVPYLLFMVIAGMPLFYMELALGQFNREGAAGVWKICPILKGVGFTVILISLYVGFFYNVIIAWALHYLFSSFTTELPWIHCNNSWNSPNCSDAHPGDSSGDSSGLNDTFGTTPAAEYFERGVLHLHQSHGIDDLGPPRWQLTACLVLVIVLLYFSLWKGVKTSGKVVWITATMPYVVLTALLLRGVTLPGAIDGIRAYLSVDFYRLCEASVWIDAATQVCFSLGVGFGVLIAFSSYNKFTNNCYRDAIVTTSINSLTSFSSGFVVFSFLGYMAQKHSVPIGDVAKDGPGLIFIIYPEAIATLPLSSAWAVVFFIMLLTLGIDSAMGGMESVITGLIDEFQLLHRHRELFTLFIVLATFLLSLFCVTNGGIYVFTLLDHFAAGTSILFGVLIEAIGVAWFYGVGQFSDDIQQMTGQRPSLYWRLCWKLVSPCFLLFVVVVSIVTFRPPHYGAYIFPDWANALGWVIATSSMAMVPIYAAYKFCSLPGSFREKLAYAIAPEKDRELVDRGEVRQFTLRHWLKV

| SMILES | IC50 [1] | inhibition [2] | IC50 [3] | Ratio IC50 (Homo sapiens) | other results |
| --- | --- | --- | --- | --- | --- |
| CNC[C@@H](O)[C@H](c1cccc(F)c1)n1ccc2ccc(Br)cc21 | 1000 nM | 12% | 124 nM | 8 | – |
| CNC[C@@H](O)[C@H](c1ccccc1F)n1ccc2ccccc21 | 473 nM | 4% | 92 nM | 5 | – |
| CNCC[C@H](c1cccc(F)c1)n1ccc2ccccc21 | 14 nM | 52% | 91 nM | 0.2 | – |
| CNC[C@@H](O)[C@H](c1cccc(F)c1)n1ccc2cccc(Br)c21 | 113 nM | 0% | 21 nM | 5 | – |
| CNC[C@@H](O)[C@H](c1cccc(F)c1)n1ccc2cccc(C)c21 | 527 nM | 7% | 18 nM | 29 | – |
| CNC[C@@H](O)[C@H](c1cccc(F)c1)n1ccc2ccccc21 | 441 nM | 23% | 11 nM | 40 | – |
| CNC[C@@H](O)[C@H](c1cccc(F)c1)n1ccc2ccc(Cl)cc21 | 865 nM | 9% | 92 nM | 9 | – |
| CNC[C@@H](O)[C@H](c1cccc(F)c1)n1ccc2cc(Br)ccc21 | 52 nM | 10% | 60 nM | 1 | – |
| CNC[C@@H](O)[C@H](c1ccc(F)cc1)n1ccc2ccccc21 | 1370 nM | 11% | 84 nM | 16 | – |
| CNC[C@@H](O)[C@H](c1cccc(F)c1)n1ccc2c(C)cccc21 | 228 nM | 4% | 15 nM | 15 | – |
| CNC[C@@H](O)[C@H](c1cccc(OC)c1)n1ccc2ccccc21 | 882 nM | 0% | 111 nM | 8 | – |
| CNC[C@@H](O)[C@H](c1ccccc1C)n1ccc2ccccc21 | 266 nM | 11% | 232 nM | 1 | – |
| CNC[C@@H](O)[C@H](c1cccc(F)c1)n1ccc2c(F)cccc21 | 417 nM | 3% | 16 nM | 26 | – |
| CNC[C@@H](O)[C@H](c1cccc(F)c1)n1ccc2c(Br)cccc21 | 207 nM | 24% | 52 nM | 4 | – |
| CNC[C@@H](O)[C@H](c1cccc(F)c1)n1ccc2cc(C)ccc21 | 48 nM | 0% | 21 nM | 2 | – |
| CNC[C@@H](O)[C@H](c1cccc(Br)c1)n1ccc2ccccc21 | 547 nM | 13% | 14 nM | 39 | – |

| SMILES | IC50 [1] | inhibition [2] | IC50 [3] | Ratio IC50 (Homo sapiens) | other results |
| --- | --- | --- | --- | --- | --- |
| CNC[C@@H](O)[C@H](c1ccc(Cl)cc1)n1ccc2ccccc21 | 748 nM | 16% | 527 nM | 1 | – |
| CNC[C@@H](O)[C@H](c1cccc(F)c1)n1ccc2cccc(Cl)c21 | 48 nM | 0% | 21 nM | 2 | – |
| CNCC[C@H](c1ccccc1)n1ccc2ccccc21 | 491 nM | 44% | 34 nM | 14 | – |
| CNC[C@@H](O)[C@H](c1cccc(F)c1)n1ccc2cc(F)ccc21 | 78 nM | 9% | 22 nM | 4 | – |
| CNC[C@@H](O)[C@H](c1ccccc1Cl)n1ccc2ccccc21 | 1330 nM | 7% | 304 nM | 4 | – |
| CNC[C@@H](O)[C@H](c1cccc(C)c1)n1ccc2ccccc21 | 377 nM | 8% | 49 nM | 8 | – |
| CNC[C@@H](O)[C@H](c1cccc(F)c1)n1ccc2ccc(F)cc21 | 626 nM | 15% | 20 nM | 31 | – |
| CNC[C@@H](O)[C@H](c1cccc(F)c1)n1cc(C)c2ccccc21 | 343 nM | 8% | 4 nM | 86 | concentration at 8 h [4]: 40 nM; bioavailability [5]: 6%; Activity (Rattus norvegicus [6]): 10.5 h; Cmax [7]: 87 ng/mL; Activity (Rattus norvegicus [8]): 0.5 h; Kp [9]: 3.5; Activity (Rattus norvegicus [10]): 1 h; Activity (Rattus norvegicus [11]): -7 °C; Activity (Rattus norvegicus [12]): -3.8 °C; Time (Rattus norvegicus [13]): 5 h; Activity (Rattus norvegicus [14]): -2.3 °C; Activity (Rattus norvegicus [15]): -1.5 °C |
| CCc1cn([C@@H](c2cccc(F)c2)[C@H](O)CNC)c2ccccc12 | 834 nM | 0% | 10 nM | 83 | – |
| CNC[C@@H](O)[C@H](c1ccc(C)cc1)n1ccc2ccccc21 | 398 nM | 0% | 117 nM | 3 | – |
| CNC[C@@H](O)[C@H](c1cccc(F)c1)n1ccc2cc(Cl)ccc21 | 79 nM | 6% | 60 nM | 1 | – |
| CNC[C@@H](O)[C@H](c1cccc(F)c1)n1ccc2c(Cl)cccc21 | 221 nM | 12% | 64 nM | 3 | – |
| CNC[C@@H](O)[C@H](c1cccc(C(F)(F)F)c1)n1ccc2ccccc21 | 2180 nM | 14% | 54 nM | 40 | – |
| CNC[C@@H](O)[C@H](c1cccc(Cl)c1)n1ccc2ccccc21 | 554 nM | 20% | 16 nM | 34 | – |
| CNC[C@@H](O)[C@H](c1cccc(F)c1)n1ccc2cccc(F)c21 | 175 nM | 8% | 7 nM | 25 | – |
